According to article PMC6853638, “TMC1 is an essential component of a leak channel that modulates tonotopy and excitability of auditory hair cells in mice” (eLife, 2019):
Where a chain is given by its changes, count along the chain named. “And” between values parts separate entries of the source, which are not always exact repeats. Equal entries are not always repeated.

Assays:
Test in all cases: Background current before and after MTSET treatment in Tmc1-knockout OHCs expressing cysteine-substituted TMC1
[1] = biological target: T1, cysteine-substituted TMC1 constructs (Mus musculus, UniProt Q8R4P5, D528C); assay type: cell-based; details: Tmc1-knockout OHCs expressing TMC1-D528C, individual cells
T1 construct: control full-length TMC1 (TMC1_WT); expressed in transfected cells; host or cells: Tmc1-knockout mouse OHCs, injectoporation
T1 sequence (Q8R4P5 1-757 D528C): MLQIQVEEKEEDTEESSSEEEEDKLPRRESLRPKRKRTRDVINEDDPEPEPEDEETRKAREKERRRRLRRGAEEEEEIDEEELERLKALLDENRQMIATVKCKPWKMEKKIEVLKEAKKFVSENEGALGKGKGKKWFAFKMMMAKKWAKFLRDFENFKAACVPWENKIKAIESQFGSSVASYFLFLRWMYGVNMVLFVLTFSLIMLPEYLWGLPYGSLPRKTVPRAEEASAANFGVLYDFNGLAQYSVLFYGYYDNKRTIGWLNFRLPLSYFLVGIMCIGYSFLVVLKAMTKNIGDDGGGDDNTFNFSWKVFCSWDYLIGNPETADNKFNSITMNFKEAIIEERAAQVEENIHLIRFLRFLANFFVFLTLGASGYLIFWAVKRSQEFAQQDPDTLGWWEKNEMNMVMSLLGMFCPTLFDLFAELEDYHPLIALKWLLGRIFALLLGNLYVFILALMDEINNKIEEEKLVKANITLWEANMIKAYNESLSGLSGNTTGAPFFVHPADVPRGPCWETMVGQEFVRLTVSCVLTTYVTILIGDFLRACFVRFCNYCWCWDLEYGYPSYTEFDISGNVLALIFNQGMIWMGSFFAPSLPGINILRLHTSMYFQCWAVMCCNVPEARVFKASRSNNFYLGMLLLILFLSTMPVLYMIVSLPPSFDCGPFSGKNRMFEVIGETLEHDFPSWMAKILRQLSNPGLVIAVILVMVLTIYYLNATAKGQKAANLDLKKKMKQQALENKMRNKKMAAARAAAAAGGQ
Protocol: (§1) Mouse Tmc1 and Tmc2 cDNAs were cloned into CMV-Script and pCDNA3.1- vectors, respectively. To obtain the Tmc1-deafness vector and amino-acid-substituted Tmc1 constructs, specific primers were designed and used for PCR (Supplementary File 1). […] In brief, the organ of Corti was isolated from P3 mice and cut into three pieces in Dulbecco’s modified Eagle’s medium/F12 with 1.5 μg/ml ampicillin. For electroporation, a glass pipette (2 μm tip diameter) was used to deliver cDNA plasmids (0.2 μg/μl in 1 × Hanks' balanced salt solution) to hair cells in the sensory epithelium. EGFP was used as an indicator for the selection of transfected hair cells. A series of three pulses at 60 V lasting 15 ms at 1 s intervals was applied to cochlear tissues by an electroporator (ECM Gemini X2, BTX, CA). The cochlear tissues were cultured for 1 day in vitro and then used for electrophysiological recording.
(§2) All experiments were performed at room temperature (20–25°C). Briefly, the basilar membrane with hair cells was acutely dissected from neonatal mice. […] The acutely isolated or cultured basilar membrane was used for electrophysiological recording within 1 h. […] Hair cells were recorded with a patch-clamp amplifier (EPC 10 USB and Patchmaster software, HEKA Elektronik, Lambrecht/Pfalz, Germany).
(§3) The sampling rate was 1 kHz for leak current recording, 50 kHz for the IV protocol and current-clamp recording, and 100 kHz for unitary channel recording. The voltage-clamp used a –70 mV holding potential, and the current-clamp was held at 0 pA. Only recordings with a current baseline <20 pA in NMDG solution were used for statistical analysis.

[2] = biological target: T2, cysteine-substituted TMC1 constructs (Mus musculus, UniProt Q8R4P5, M412C); assay type: cell-based; details: Tmc1-knockout OHCs expressing TMC1-M412C, individual cells
T2 construct: control full-length TMC1 (TMC1_WT); expressed in transfected cells; host or cells: Tmc1-knockout mouse OHCs, injectoporation
T2 sequence (Q8R4P5 1-757 M412C): T1 sequence (Q8R4P5 1-757 D528C) with M412C, C528D
Protocol: as §1, §2, §3

[3] = tested on: cysteine-substituted TMC1 constructs; assay type: cell-based, mouse; details: OHCs expressing any of the six cysteine-substituted TMC1 constructs
Protocol: as §1, §2, §3

## C[N+](C)(C)CCSS(C)(=O)=O.[Br-] [MTSET, 2-(trimethylammonium)ethyl methanethiosulfonate, bromide]
[1]
  amplitude of the background current after MTSET treatment: -23.6585 and -22.824 and -11.63 and -11.1296
[2]
  amplitude of the background current after MTSET treatment: -35.9532 and -37.439 and -48.1972 and -25.6217 and -14.3767 and -67.9843
[3]
  effect on the current baseline: did not, however, change the current baseline
